Ki data for ten compounds are collected here from BindingDB's records for doi:10.1016/j.chembiol.2013.07.014 (University of Massachusetts, 2013).

Assay in all cases: HIV-1 protease inhibition assay
Holding throughout (details): pH 4.7; 25 °C

Test [1] concerns the target T1, Gag-Pol polyprotein [484-582,Q491K,I497V,V499I,E519D,R541K,D544E,L547P,Q553K,A555V,G557S,I568V,L573M,L574M] (Human immunodeficiency virus, UniProt Q9QBY3, A555V/D544E/E519D/G557S/I497V/I568V/L547P/L573M/L574M/Q491K/Q553K/R541K/V499I).
T1 construct: 484-582
The protocol: (§1) The reaction mixture contained 2 µL of protease and 2 µL of inhibitor (or DMSO as a control) and was incubated for 20-30 min at room temperature prior to the substrate cleavage reaction. 150 µL of a 1 µM substrate were used in substrate buffer (0.1 M sodium acetate, 1 M sodium chloride, 1 mM EDTA, 1 MM DTT, 2% DMSO, and 1 mg/mL BSA with an adjusted pH of 4.7).

Test [2] addresses T2, Gag-Pol polyprotein [484-582,Q491K,I497V,V499I,E519D,G532V,I538V,R541K,D544E,L547P,Q553K,V566A,L573M] (Human immunodeficiency virus, UniProt Q9QBY3, D544E/E519D/G532V/I497V/I538V/L547P/L573M/Q491K/Q553K/R541K/V499I/V566A).
T2 construct: 484-582
The protocol:
as §1

Test [3] deals with T3, Gag-Pol polyprotein [484-582,Q491K,I494L,I497V,V499I,E519D,I534V,R541K,D544E,Q553K,A555V,L573M] (Human immunodeficiency virus, UniProt Q9QBY3, A555V/D544E/E519D/I494L/I497V/I534V/L573M/Q491K/Q553K/R541K/V499I).
T3 construct: 484-582
As for the experimental part: as §1

As for `CC[C@H](C)CN(C[C@@H](O)[C@H](Cc1ccccc1)NC(=O)O[C@H]1CO[C@H]2OCC[C@H]21)S(=O)(=O)c1ccc(CO)cc1` [(3R,3aS,6aR)-Hexahydrofuro[2,3-b]furan-3-yl ((2S,3R)-3-hydroxy-4-(4-(hydroxymethyl)-N-((S)-2-methylbutyl)phenylsulfonamido)-1-phenylbutan-2-yl)carbamate (10c)], the Ki – broadly, a dissociation constant, usually derived from enzyme kinetics or from competition with a known ligand – in test [1] came to 0.004 nM; in test [2], 0.022 nM; in test [3] it was 0.013 nM.

In the case of `CC[C@H](C)CN(C[C@@H](O)[C@H](Cc1ccccc1)NC(=O)O[C@H]1CO[C@H]2OCC[C@H]21)S(=O)(=O)c1ccc(OC)cc1` [(3R,3aS,6aR)-Hexahydrofuro[2,3-b]furan-3-yl ((2S,3R)-3-hydroxy-4-(4-methoxy-N-((S)-2-methylbutyl)phenylsulfonamido)-1-phenylbutan-2-yl)carbamate (10b)], the Ki in test [1] amounted to 0.021 nM; in test [2] it was 0.005 nM; in test [3] it was 0.103 nM.

As for `CC[C@H](C)CN(C[C@@H](O)[C@H](Cc1ccccc1)NC(=O)O[C@H]1CO[C@H]2OCC[C@H]21)S(=O)(=O)c1ccc2c(c1)OCO2` [(3R,3aS,6aR)-Hexahydrofuro[2,3-b]furan-3-yl ((2S,3R)-3-hydroxy-4-(N-((S)-2-methylbutyl)benzo[d][1,3]dioxole-5-sulfonamido)-1-phenylbutan-2-yl)carbamate (10d)], the Ki in test [1] is 0.099 nM; in test [2], 0.029 nM; in test [3] it was 0.035 nM.

Regarding `CC[C@H](C)CN(C[C@@H](O)[C@H](Cc1ccccc1)NC(=O)O[C@H]1CO[C@H]2OCC[C@H]21)S(=O)(=O)c1ccc2ncsc2c1` [(3R,3aS,6aR)-Hexahydrofuro[2,3-b]furan-3-yl ((2S,3R)-3-hydroxy-4-(N-((S)-2-methylbutyl)benzo[d]thiazole-6-sulfonamido)-1-phenylbutan-2-yl)carbamate (10e)], the Ki in test [1] came out at 0.041 nM; in test [2], 0.012 nM; in test [3] it was 0.025 nM.

For `CCC(CC)CN(C[C@@H](O)[C@H](Cc1ccccc1)NC(=O)O[C@H]1CO[C@H]2OCC[C@H]21)S(=O)(=O)c1ccc(N)cc1` [(3R,3aS,6aR)-Hexahydrofuro[2,3-b]furan-3-yl ((2S,3R)-4-(4-amino-N-(2-ethylbutyl)phenylsulfonamido)-3-hydroxy-1-phenylbutan-2-yl)carbamate (11a)], the Ki was determined as 0.022 nM in test [1], 0.034 nM in test [2] and 0.062 nM in test [3].

With `CC[C@H](C)CN(C[C@@H](O)[C@H](Cc1ccccc1)NC(=O)O[C@H]1CO[C@H]2OCC[C@H]21)S(=O)(=O)c1ccc(N)cc1` [(3R,3aS,6aR)-Hexahydrofuro[2,3-b]furan-3-yl ((2S,3R)-4-(4-amino-N-((S)-2-methylbutyl)phenylsulfonamido)-3-hydroxy-1-phenylbutan-2-yl)carbamate (10a)], the Ki was 0.013 nM in test [1], 0.016 nM in test [2] and 0.006 nM in test [3].

For the compound `CCC(CC)CN(C[C@@H](O)[C@H](Cc1ccccc1)NC(=O)O[C@H]1CO[C@H]2OCC[C@H]21)S(=O)(=O)c1ccc(CO)cc1` [(3R,3aS,6aR)-Hexahydrofuro[2,3-b]furan-3-yl ((2S,3R)-4-(N-(2-ethylbutyl)-4-(hydroxymethyl)phenylsulfonamido)-3-hydroxy-1-phenylbutan-2-yl)carbamate (11c)], the results for the inhibitory constant (Ki) in test [1], in test [2] and in test [3] were 0.07 nM, 0.005 nM and 0.026 nM, respectively.

In the case of `CCC(CC)CN(C[C@@H](O)[C@H](Cc1ccccc1)NC(=O)O[C@H]1CO[C@H]2OCC[C@H]21)S(=O)(=O)c1ccc(OC)cc1` [(3R,3aS,6aR)-Hexahydrofuro[2,3-b]furan-3-yl ((2S,3R)-4-(N-(2-ethylbutyl)-4-methoxyphenylsulfonamido)-3-hydroxy-1-phenylbutan-2-yl)carbamate (11b)], the Ki in test [1] came to 0.134 nM; in test [2], 0.001 nM; in test [3] it was 0.01 nM.

For `CCC(CC)CN(C[C@@H](O)[C@H](Cc1ccccc1)NC(=O)O[C@H]1CO[C@H]2OCC[C@H]21)S(=O)(=O)c1ccc2c(c1)OCO2` [(3R,3aS,6aR)-Hexahydrofuro[2,3-b]furan-3-yl ((2S,3R)-4-(N-(2-ethylbutyl)benzo[d][1,3]dioxole-5-sulfonamido)-3-hydroxy-1-phenylbutan-2-yl)carbamate (11d)], the Ki worked out at 0.104 nM in test [1], 0.034 nM in test [2] and 0.006 nM in test [3].

Regarding `CCC(CC)CN(C[C@@H](O)[C@H](Cc1ccccc1)NC(=O)O[C@H]1CO[C@H]2OCC[C@H]21)S(=O)(=O)c1ccc2ncsc2c1` [(3R,3aS,6aR)-Hexahydrofuro[2,3-b]furan-3-yl ((2S,3R)-4-(N-(2-ethylbutyl)benzo[d]thiazole-6-sulfonamido)-3-hydroxy-1-phenylbutan-2-yl)carbamate (11e)], the Ki in test [1] worked out at 0.052 nM; in test [2], 0.126 nM; in test [3], 0.108 nM.
